Data reported in paper PMC6745035, “Novel tetrahydroacridine derivatives with iodobenzoic moieties induce G0/G1 cell cycle arrest and apoptosis in A549 non-small lung cancer and HT-29 colorectal cancer cells” (Molecular and Cellular Biochemistry, 2019).
Read-outs that look alike come from different tables or passages of the source. Values belong to the compound of their own block, whether it stands above or below them.

Key:
HT-29 cells [1] = experiment: MTT cytotoxicity assay, HT-29; format: cell-based; settings: Homo sapiens, read-out: IC50 µM ± SD against HT-29
Excerpt: (§1) The MTT assay was used to evaluate cell metabolic activity. The test principle is based on the determination of cell viability by measuring the metabolic activity in mitochondria. Enzymatically active mitochondria reduce the water-soluble MTT (3-(4,5-dimethylthiazol-2-yl)-2,5 diphenyltetrazoliumbromide) to blue–violet insoluble formazan. The number of viability cells is proportional to the colour intensity determined by photometric measurements (an analytical wavelength 570 nm) after dissolving the formazan in Dimethylsulfoxide (DMSO) (Serva) and Sorensen’s glycine buffer. MTT (Sigma Aldrich) was dissolved in Phosphate Buffered Saline (PBS) (PAN-Biotech) at a concentration of 0.5 mg/mL. Sorensen’s glycine buffer is made of 0.1 M glycine and 0.1 M NaCl, at pH 10.5. Studied compounds were dissolved in DMSO in order to receive stock solutions.
(§2) For the assay, cells were seeded into 96-well plates at density 10^4 cells per well and cultured for 24 h at 37 °C and 5% CO2. Then medium was removed, and cells were exposed to the 100 µL of the compound solutions over a range of concentrations (final DMSO concentration was below 0.2%) or nothing but culture medium (blank control). Pure DMSO was used as a positive control. After 24 h of incubation with the compound solutions, medium was removed and 50 µL of the MTT solution was added to each well and incubated in the dark for additional 2 h at 37 °C. Then the MTT solution was carefully removed and 100 µL of DMSO was added. Plates were incubated for 10 min at room temperature. Finally, 5 µL of Sorensen Buffer was added to each well. Plate was swayed, and the absorbance was measured by using microplate reader (Synergy H1, BioTek, Winooski, VT, USA) at a wavelength of 570 nm. The cell viability was expressed as a percentage of the control values (blank). The experiments were done in triplicate.

EA.hy926 cells = experiment: MTT cytotoxicity assay, EA.hy926; format: cell-based, human
Excerpt: The EA.hy926 cells (the human umbilical vein, somatic cell hybrid) (American Type Culture Collection) are immortalized human umbilical vein endothelial cells. They have morphological, phenotypic and functional characteristics of human endothelial cells, without the limited lifespan. This cell line has been considered as a good model for anticancer drug screening and was chosen to evaluate the endothelial cytotoxicity of novel compounds.
as §1, §2

PARP-1 = experiment: Western blot of PARP-1 cleavage, HT-29; format: cell-based, human; settings: HT-29, 24 h, IC50 and 1/2IC50
Experimental: (§3) Then, cells were treated with chosen compounds. After 24 h of incubation, monolayer and supernatant were harvested and washed in cold PBS. Cells were centrifuged—monolayer at 1200 rpm for 10 min, supernatant 3500 rpm for 10 min. Pellets were dissolved in RIPA Lysis and Extraction buffer (Bio-Rad) containing Phosphatase Inhibitor Cocktail 3 (Sigma Aldrich) and Protease Inhibitor Cocktail (Sigma Aldrich). Samples were incubated in ice for 30 min and mixed every 10 min. Then, samples were centrifuged at 12,000 rpm for 25 min. Protein concentration in supernatants was measured in triplicate using a Protein Assay (Bio-Rad). Proteins were separated by SDS–polyacrylamide gel electrophoresis. Separating and stacking gels were made of different ratios of water, Tris–HCl pH 6.8 and pH 8.8, 10% SDS (Sigma Aldrich), Acrylamide/bis-acrylamide (Sigma Aldrich), 10% APS (Sigma Aldrich), TEMED (Sigma Aldrich). 7.5% gels were prepared for analysis PARP-1, whereas 12% gels prepared for γ-H2AX. After separation on SDS–polyacrylamide gels, proteins were electroblotted on nitrocellulose membrane in Transfer Buffer (Glycine, Tris, Methanol). Membranes were washed in TBS/0.1% or 0.05% Tween20 solution and blocked in Tris-buffered saline with 5% of non-fated dried milk for 1 h. Membranes were then incubated overnight with primary antibodies—anti-PARP-1 (Cell Signaling Technology), anti-γ-H2A.X (Cell Signaling Technology), anti-β-actin (Cell Signaling Technology) in cold room (6 °C). After incubation, membranes well washed with TBS/Tween solution and blocked with and horseradish peroxidase-conjugated secondary antibodies (Bio-Rad) for 1 h in cold room. Protein bands were visualized using ECL™ Prime Western Blotting Detection Reagents (Sigma Aldrich) Healthcare and Carestream Kodak autoradiography GBX fixer/replenisher (Sigma Aldrich) with Developer and Replenisher (Carestream) in the dark room. Results were obtained on Autoradiography Film (Santa Cruz Biotechnology). Densitometric analysis was performed by using a software program (ImageJ). […]

supercoiled pUC19 DNA = settings: 100 µM; human Topoisomerase I
A549 cells = experiment: MTT cytotoxicity assay, A549; format: cell-based, human
Excerpt: A549 cell line (lung carcinoma from human) (European Collection of Cell Culture) and HT-29 cell line (colorectal adenocarcinoma from human) (American Type Culture Collection) were chosen to evaluate the cytotoxicity of novel compounds.
as §1, §2

SH-SY5Y cells [2] = experiment: Cytoprotection against H2O2 (100 µM), MTT; settings: for Cells viability (%) ± SD after 24 h of incubation with compound and H2O2: H2O2 only 82.74%; for viability at 1 µM: Homo sapiens, 24 h, read-out: Cells viability (%) ± SD after 24 h of incubation with compound and H2O2
SH-SY5Y cells [3] = experiment: Cytoprotection against rotenone/oligomycin A, pre-incubation, MTT; format: cell-based, human; settings: for Cytoprotection: pre-incubation with rotenone/oligomycin A;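 for Cytoprotection: Toxic mixture Rotenone 30 µM plus Oligomycin A 10 µM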
Experimental: Rotenone with oligomycin A (R/O) were taken to induce mitochondrial ROS by blocking of complexes I and V of the mitochondrial electron transport chain. It causes free radical production and blockade of ATP synthesis. In the pre-incubation experiment, it could be assessed whether the compounds have cytoprotective properties due to the activation of endogenous antioxidant pathways. In the co-incubation could be shown whether compounds are free-radical scavengers. MTT assay was a test of choice, because in this assay mitochondrial activity is measured. […] It can be determined whether novel compound would protect cells from both apoptotic and necrotic death resulting from the increase of intracellular ROS. In both experiments, trolox was used as a reference compound. […] After this time, toxic mixture was added, and cells were maintained for an additional 24 h in the presence of the compounds.

HT-29 cells [4] = experiment: Reactive oxygen species assay (DCFH-DA), HT-29; format: cell-based, human; settings: compound at IC50 24 h plus H2O2, H2O2 only 1.88-fold
Experimental: After incubation, compounds were added into the wells and further incubated for next 24 h. H2O2 (1 mM) was added at 22nd h of incubation with compounds. H2O2 was used as a positive control. 30 min before the analysis, DCFH-DA (20 µM) was added to the wells. After incubation, cells were harvested and washed in PBS. Then, cells were centrifuged at 1500 rpm for 10 min. Medium was removed and cells were suspended in PBS. Analysis was performed on BD Accuri C6 Flow Cytometry (Becton–Dickinson).

γ-H2AX = experiment: Western blot of γ-H2AX, HT-29; format: cell-based, human; settings: HT-29, 24 h, IC50 and 1/2IC50
Experimental: as §3

[5] = biological target: T1, hyaluronidase from bovine testes Type I-S (Bos taurus, UniProt Q2YDK3); experiment: Hyaluronidase inhibition assay (turbidimetric); format: biochemical; settings: read-out: HYAL IC50 ± SD
T1 construct: purchased Sigma Aldrich; host or cells: bovine testes (tissue-derived preparation)
T1 sequence (Q2YDK3 36-553): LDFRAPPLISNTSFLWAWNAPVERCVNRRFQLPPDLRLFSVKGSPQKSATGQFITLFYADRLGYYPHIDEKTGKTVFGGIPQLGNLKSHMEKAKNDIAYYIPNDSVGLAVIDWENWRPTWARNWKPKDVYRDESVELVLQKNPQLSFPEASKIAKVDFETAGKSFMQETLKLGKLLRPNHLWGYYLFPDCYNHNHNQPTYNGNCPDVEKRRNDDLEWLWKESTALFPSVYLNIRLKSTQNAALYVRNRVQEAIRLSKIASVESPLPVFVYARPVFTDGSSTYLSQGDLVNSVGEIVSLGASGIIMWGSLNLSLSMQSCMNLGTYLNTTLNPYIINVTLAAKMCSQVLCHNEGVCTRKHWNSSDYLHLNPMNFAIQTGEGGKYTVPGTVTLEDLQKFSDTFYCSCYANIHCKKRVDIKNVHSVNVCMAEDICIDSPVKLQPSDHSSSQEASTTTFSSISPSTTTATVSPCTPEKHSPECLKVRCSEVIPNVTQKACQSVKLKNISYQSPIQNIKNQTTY

SH-SY5Y cells [6] = experiment: Cytoprotection against rotenone/oligomycin A, co-incubation, MTT; format: cell-based, human; settings: co-incubation with rotenone/oligomycin A
Experimental: In the co-incubation assay, compounds and mixture of R/O were incubated together for 24 h. […] It turned out that none of the compounds (apart from 1i at the concentration of 0.001 µM and cytoprotection of 2.99%) had cytoprotective properties in the whole range of concentrations (Fig. 17). Compounds were not able to capture free radicals; therefore they cannot be classified as free-radical scavengers.

[7] = Homo sapiens, A549, MTT, 24 h incubation, read-out: IC50 µM ± SD against A549

Compound: O=c1[nH]cc(F)c(=O)[nH]1 [5-Fluorouracil, reference compound]
IC50 (HT-29 cells [1]; HT-29, MTT, 24 h incubation): 1630 ± 49.3 µM
IC50 (EA.hy926 cells; Homo sapiens, EA.hy 926, MTT, 24 h incubation, read-out: IC50 µM ± SD against EA.hy926): > 1800 µM

Compound: O=C(NCCCCNc1c2c(nc3ccccc13)CCCC2)c1cccc(I)c1 [Compound 1f]
Cleaved PARP-1 (89 kDa) level (in words) (PARP-1): lower apoptosis at IC50 concentrations
Intercalation: supercoiled pUC19 DNA band (in words) (supercoiled pUC19 DNA): bands at the same level as EB
IC50 (A549 cells; Homo sapiens, A549, 24 h, read-out: IC50 µM ± SD against A549, MTT, 24 h incubation): 23.5 µM
IC50 (A549 cells; read-out: IC50 µM ± SD against A549, MTT, 24 h incubation): 26.4 ± 2.45 µM
IC50 (HT-29 cells [1]; HT-29, 24 h): 8.52 ± 0.1 µM
Cells viability (%) ± SD after 24 h of incubation with compound and H2O2 (SH-SY5Y cells [2]; H2O2 100 µM, concentration: 1b 16.26, 1c 6.79, 1e 11.75, 1f 4.26, 1i 5.90 µM): 79.45 ± 9.87%
Cells viability (%) ± SD after 24 h of incubation with compound and H2O2 (SH-SY5Y cells [2]; H2O2 100 µM, concentration: 1b 65.04, 1c 27.16, 1e 46.98, 1f 17.04, 1i 29.74 µM): 23.85 ± 2.08 %
viability at 1 µM (SH-SY5Y cells [2]): 94.3 ± 7.26%
Cytoprotection (SH-SY5Y cells [3]; 0.001 µM): 57.16%
Cytoprotection (SH-SY5Y cells [3]; 0.01 µM): 35.65%
Cytoprotection (SH-SY5Y cells [3]; 0.1 µM): 35.21%
Cytoprotection (SH-SY5Y cells [3]; 1 µM): 30.81%
Cytoprotective properties in the pre-incubation assay (in words) (SH-SY5Y cells [3]; rotenone/oligomycin A, range of concentration 1–0.001 µM): showed their action against oxidative stress in the whole range of concentrations
Increase in ROS level (DCF fluorescence) in comparison with non-treated control (HT-29 cells [4]): 1.87 fold
γ-H2AX protein level / DNA damage (in words) (γ-H2AX): strongest H2AX phosphorylation
IC50 (EA.hy926 cells; Homo sapiens, EA.hy 926, 24 h, read-out: IC50 µM ± SD against EA.hy926, MTT, 24 h incubation): 11.7 µM
IC50 (EA.hy926 cells; read-out: IC50 µM ± SD against EA.hy926, MTT, 24 h incubation): 12.4 ± 1.31 µM

Compound: O=C(NCCNc1c2c(nc3ccccc13)CCCC2)c1ccc(I)cc1 [Compound 1g]
IC50 (A549 cells; [7]): 20.8 ± 1.58 µM
IC50 (HT-29 cells [1]; HT-29, MTT, 24 h incubation): 8.16 ± 0.44 µM
IC50 [5]: 191 ± 10.8 µM

IC50 [5]: 234 ± 7.9 µM
Compound: O=C(NCCNc1c2c(nc3ccccc13)CCCC2)c1ccccc1I [Compound 1a]
IC50 (A549 cells; [7]): 36 ± 1.74 µM
IC50 (HT-29 cells [1]; HT-29, MTT, 24 h incubation): 17.3 ± 1.22 µM

IC50 [5]: 300 ± 6.3 µM
Compound: O=C(NCCNc1c2c(nc3ccccc13)CCCC2)c1cccc(I)c1 [Compound 1d]
IC50 (A549 cells; [7]): 41.2 ± 1.27 µM
IC50 (HT-29 cells [1]; HT-29, MTT, 24 h incubation): 7.62 ± 0.19 µM

Compound: Cc1c(C)c2c(c(C)c1O)CCC(C)(C(=O)O)O2 (centres unmarked) [Trolox, 6-hydroxy-2,5,7,8-tetramethylchroman-2-carboxylic acid, reference compound]
Cytoprotection (SH-SY5Y cells [6]; 0.001 µM): 9.08%
Cytoprotection (SH-SY5Y cells [6]; 0.01 µM): 8.18%
Cytoprotection (SH-SY5Y cells [6]; 0.1 µM): 4.02%
Cytoprotection (SH-SY5Y cells [6]; 1 µM): 6.12%
Cytoprotection against H2O2 (SH-SY5Y cells [2]; H2O2 100 µM, 1 µM): 96.38%
viability at 1 µM (SH-SY5Y cells [2]): 99.4 ± 9.81%
Cytoprotection (SH-SY5Y cells [3]; 0.001 µM): 0.98%
Cytoprotection (SH-SY5Y cells [3]; 1 µM): 0.53%

Compound: O=C(NCCCNc1c2c(nc3ccccc13)CCCC2)c1ccc(I)cc1 [Compound 1h]
IC50 (A549 cells; [7]): 21.4 ± 1.54 µM
IC50 (HT-29 cells [1]; HT-29, MTT, 24 h incubation): 9.4 ± 1.65 µM
IC50 [5]: 201 ± 8.36 µM

Intercalation: supercoiled pUC19 DNA band (in words) (supercoiled pUC19 DNA): stronger intercalator than EB
Compound: COc1cc(NS(C)(=O)=O)ccc1Nc1c2ccccc2nc2ccccc12 [amsacrine, reference compound]

Compound: Heparin [reference compound]
IC50 [5]: 56.4 ± 0.78 µM
